Measurements: article PMC7321161, “The Intriguing Effects of Substituents in the N-Phenethyl Moiety of Norhydromorphone: A Bifunctional Opioid from a Set of “Tail Wags Dog” Experiments” (Molecules, 2020)
Where “and” joins values, the source holds several entries; their conditions need not be identical. Equal entries are not always repeated.

How the values were obtained:
μ-opioid receptor (MOR) = molecular target: T1, μ-opioid receptor (MOR) (Rattus norvegicus, UniProt P33535); experiment: Opioid receptor binding, μ sites ([3H]DAMGO), rat brain homogenate
T1 construct: Frozen whole rat brains excluding cerebellum were thawed on ice; from tissue; host or cells: whole rat brain excluding cerebellum, membrane homogenate

δ-opioid receptor (DOR) = molecular target: T2, δ-opioid receptor (DOR) (Rattus norvegicus, UniProt P33533); experiment: Opioid receptor binding, δ sites ([3H]DADLE), rat brain homogenate
T2 construct: Frozen whole rat brains excluding cerebellum were thawed on ice; from tissue; host or cells: whole rat brain excluding cerebellum, membrane homogenate

κ-opioid receptor (KOR) = molecular target: T3, κ-opioid receptor (KOR) (Rattus norvegicus, UniProt P34975); experiment: Opioid receptor binding, κ sites ([3H]U69,593), rat brain homogenate; conditions: for Ki: KOR Binding (Ki), whole rat brain excluding cerebellum, [3H]U69,593, Ki ± SEM
T3 construct: Frozen whole rat brains excluding cerebellum were thawed on ice; from tissue; host or cells: whole rat brain excluding cerebellum, membrane homogenate

rat MOR = molecular target: T4, rat MOR (Rattus norvegicus, UniProt P33535); experiment: Stimulation of [35S]GTPγS binding, C6 glioma cell membranes expressing MOR; format: biochemical; conditions: for MOR % Stimulation, [35S]GTPγS: compared to standard maximal DAMGO; for MOR EC50, [35S]GTPγS: C6 cells expressing MOR, mean ± SEM, DNS = no stimulation; for MOR activity type in the [35S]GTPγS assay: antagonist activity assumed from high MOR affinity and lack of stimulation
T4 construct: expressed in transfected cells; host or cells: C6 rat glioma cells, stably transfected; membranes

[1] = molecular target: T5, human μ-opioid receptor (OPRM1) (Homo sapiens, UniProt P35372); experiment: cell-based; conditions: for EC50: MOR cAMP Agonist Potency ± SEM; for Emax: OPRM1, read-out: MOR cAMP % Efficacy
T5 construct: host or cells: HitHunter CHO-K1 cells

[2] = molecular target: T6, human δ-receptor (OPRMD1) (Homo sapiens, UniProt P41143); experiment: cell-based; format: cell-based; conditions: for Emax: CHO-K1, read-out: DOR cAMP % Efficacy; for EC50: DOR cAMP Agonist Potency ± SEM
T6 construct: host or cells: HitHunter CHO-K1 cells

[3] = molecular target: T7, human κ-opioid receptor (OPRK1) (Homo sapiens, UniProt P41145); experiment: cell-based; conditions: for Emax: CHO-K1, read-out: KOR cAMP % Efficacy; for EC50: KOR cAMP Agonist Potency ± SEM
T7 construct: host or cells: HitHunter CHO-K1 cells

[4] = molecular target: T8, human μ-opioid receptor β-arrestin-2 (Homo sapiens, UniProt P35372); experiment: cell-based; conditions: for Emax: read-out: MOR Mediated β-arrestin Recruitment (% Control, Emax DAMGO)
T8 construct: enzyme fragment for EFC (β-galactosidase ProLink fragment, by own knowledge of the PathHunter system); host or cells: PathHunter CHO cells

human KOR = molecular target: T9, human KOR (Homo sapiens, UniProt P41145); experiment: Stimulation of [35S]GTPγS binding, CHO cell membranes expressing KOR; format: biochemical; conditions: for KOR % Stimulation, [35S]GTPγS: compared to standard maximal U69593; for KOR EC50, [35S]GTPγS: CHO cells expressing KOR, mean ± SEM, DNS = no stimulation
T9 construct: expressed in transfected cells; membranes

rat DOR = molecular target: T10, rat DOR (Rattus norvegicus, UniProt P33533); experiment: Stimulation of [35S]GTPγS binding, C6 glioma cell membranes expressing DOR; format: biochemical; conditions: for EC50: DOR EC50, [35S]GTPγS, C6 cells expressing DOR, mean ± SEM; for DOR % Stimulation, [35S]GTPγS: compared to standard maximal DPDPE
T10 construct: expressed in transfected cells; host or cells: C6 rat glioma cells, stably transfected; membranes
T10 sequence (P33533 whole entry): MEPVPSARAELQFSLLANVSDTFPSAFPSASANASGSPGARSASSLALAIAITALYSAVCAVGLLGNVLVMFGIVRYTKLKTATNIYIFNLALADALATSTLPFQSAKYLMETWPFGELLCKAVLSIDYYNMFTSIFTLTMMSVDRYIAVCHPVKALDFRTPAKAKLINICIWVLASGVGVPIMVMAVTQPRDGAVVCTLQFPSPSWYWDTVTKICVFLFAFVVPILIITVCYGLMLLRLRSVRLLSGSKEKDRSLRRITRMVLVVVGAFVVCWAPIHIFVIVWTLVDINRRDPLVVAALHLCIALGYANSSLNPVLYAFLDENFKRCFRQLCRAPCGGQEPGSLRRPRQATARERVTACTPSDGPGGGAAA

T9 sequence (P41145 whole entry): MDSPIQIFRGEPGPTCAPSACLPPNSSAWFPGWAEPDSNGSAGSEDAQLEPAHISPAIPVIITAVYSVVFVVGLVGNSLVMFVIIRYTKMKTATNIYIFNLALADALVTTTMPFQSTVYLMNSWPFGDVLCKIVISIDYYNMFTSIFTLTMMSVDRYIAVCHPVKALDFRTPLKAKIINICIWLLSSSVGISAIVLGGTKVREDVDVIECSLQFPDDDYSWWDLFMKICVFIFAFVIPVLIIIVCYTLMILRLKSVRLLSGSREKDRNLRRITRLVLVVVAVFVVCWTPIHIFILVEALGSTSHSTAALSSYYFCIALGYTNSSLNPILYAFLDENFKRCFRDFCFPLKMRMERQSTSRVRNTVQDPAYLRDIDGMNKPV
T7 sequence (P41145 whole entry): as above
T6 sequence (P41143 whole entry): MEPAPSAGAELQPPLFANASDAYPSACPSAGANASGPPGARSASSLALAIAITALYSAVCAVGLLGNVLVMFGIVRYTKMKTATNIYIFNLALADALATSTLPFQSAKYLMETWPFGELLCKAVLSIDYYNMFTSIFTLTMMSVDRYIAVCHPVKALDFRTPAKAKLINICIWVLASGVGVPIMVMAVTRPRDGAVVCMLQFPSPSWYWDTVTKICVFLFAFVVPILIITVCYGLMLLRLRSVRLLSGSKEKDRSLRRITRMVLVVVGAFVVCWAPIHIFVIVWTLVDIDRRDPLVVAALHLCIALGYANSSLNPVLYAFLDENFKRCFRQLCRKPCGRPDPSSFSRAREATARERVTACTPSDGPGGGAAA
T1 sequence (P33535 whole entry): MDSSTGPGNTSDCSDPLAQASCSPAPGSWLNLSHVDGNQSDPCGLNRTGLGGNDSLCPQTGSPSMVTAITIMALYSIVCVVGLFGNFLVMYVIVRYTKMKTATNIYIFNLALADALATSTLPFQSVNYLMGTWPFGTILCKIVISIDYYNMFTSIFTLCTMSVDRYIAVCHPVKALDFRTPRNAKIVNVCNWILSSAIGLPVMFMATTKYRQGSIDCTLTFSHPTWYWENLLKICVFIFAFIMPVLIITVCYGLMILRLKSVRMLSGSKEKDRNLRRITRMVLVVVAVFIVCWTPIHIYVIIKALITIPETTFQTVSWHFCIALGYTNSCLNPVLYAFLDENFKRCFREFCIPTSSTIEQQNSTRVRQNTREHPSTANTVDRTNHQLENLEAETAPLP
T4 sequence (P33535 whole entry): as above
T5 sequence (P35372 whole entry): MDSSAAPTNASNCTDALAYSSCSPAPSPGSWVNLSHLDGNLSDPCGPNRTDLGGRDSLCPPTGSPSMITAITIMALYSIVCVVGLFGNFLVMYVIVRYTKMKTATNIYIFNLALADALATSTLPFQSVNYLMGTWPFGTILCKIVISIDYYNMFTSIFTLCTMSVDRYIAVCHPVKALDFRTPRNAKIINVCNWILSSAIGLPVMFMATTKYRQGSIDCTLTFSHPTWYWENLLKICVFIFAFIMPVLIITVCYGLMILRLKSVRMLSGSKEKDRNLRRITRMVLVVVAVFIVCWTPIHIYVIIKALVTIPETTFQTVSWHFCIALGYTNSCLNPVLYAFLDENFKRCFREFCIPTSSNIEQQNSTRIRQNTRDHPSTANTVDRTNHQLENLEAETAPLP
T8 sequence (P35372 whole entry, the tested form may be a part): as the sequence (P35372 whole entry) above
T2 sequence (P33533 whole entry): as the sequence (P33533 whole entry) above
T3 sequence (P34975 whole entry): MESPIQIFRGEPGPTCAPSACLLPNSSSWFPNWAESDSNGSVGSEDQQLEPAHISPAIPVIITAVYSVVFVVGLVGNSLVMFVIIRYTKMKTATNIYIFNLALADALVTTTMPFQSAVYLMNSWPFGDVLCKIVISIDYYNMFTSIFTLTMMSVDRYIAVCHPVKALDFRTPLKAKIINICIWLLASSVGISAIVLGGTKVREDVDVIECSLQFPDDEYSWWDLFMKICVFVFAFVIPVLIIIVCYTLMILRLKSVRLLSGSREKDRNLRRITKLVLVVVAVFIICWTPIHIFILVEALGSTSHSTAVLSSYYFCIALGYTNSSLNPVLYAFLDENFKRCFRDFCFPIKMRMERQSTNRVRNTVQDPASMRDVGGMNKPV

Structure (SMILES) | Ki (μ-opioid receptor (MOR)) [nM] | Ki (δ-opioid receptor (DOR)) [nM] | Ki (κ-opioid receptor (KOR)) [nM] | EC50 (rat MOR) [nM] | MOR % Stimulation, [35S]GTPγS (rat MOR) | EC50 [1] | Emax [1] [%] | Emax [2] [%] | EC50 [2] | Emax [3] [%] | EC50 [3] | Bias Factor [4] | EC50 [4] [nM] | Emax [4] [%] | MOR EC50, [35S]GTPγS (rat MOR) | MOR activity type in the [35S]GTPγS assay (rat MOR) | EC50 (human KOR) [nM] | KOR % Stimulation, [35S]GTPγS (human KOR) | EC50 (rat DOR) | DOR % Stimulation, [35S]GTPγS (rat DOR) | other results
N#CCN1CC[C@]23c4c5ccc(O)c4O[C@H]2C(=O)CCC3C1C5 (stereo partly drawn) [Compound 1a, 2-((7aR,12bS)-9-Hydroxy-7-oxo-1,2,4,4a,5,6,7,7a-octahydro-3H-4,12-methanobenzofuro[3,2-e]isoquinolin-3-yl)acetonitrile] | 4.51 ± 0.27 | 141 ± 2.8 | 90.3 ± 6.6 | 425 ± 133 | 47% and 47.1 ± 3.3% | 4.16 nM | 102 | 77 | 254 nM | 99.3 | 109 nM | 2.18 | 424 | 33.4 | – | – | – | – | – | – | –
N#CCCCN1CCC23c4c5ccc(O)c4OC2C(=O)CCC3C1C5 (stereo not shown) [Compound 1b] | 4.25 ± 0.29 | 72.2 ± 1.2 | 2.71 ± 0.22 | – | – | – | – | – | – | – | – | – | – | – | DNS | MOR antagonist | 24.3 ± 5 | 89.6 ± 0.9% | – | – | –
O=C1CCC2C3Cc4ccc(O)c5c4[C@@]2(CCN3CCc2ccc([N+](=O)[O-])cc2)[C@H]1O5 (stereo partly drawn) [Compound 2a, (7aR,12bS)-9-Hydroxy-3-(4-nitrophenethyl)-2,3,4,4a,5,6-hexahydro-1H-4,12-methanobenzofuro[3,2-e]-isoquinolin-7(7aH)-one] | 0.52 ± 0.01 | 6.07 ± 0.86 | 56 ± 8.2 | 1.9 ± 0.5 | 26.6 ± 1.4% | 0.05 nM | 102 | 96 | 0.53 nM | 63 | 74.6 nM | 4.51 | 6.38 | 26.2 | – | potent MOR agonist | – | – | 227 ± 53 nM | 64.3 ± 3.3% | –
O=C1CCC2C3Cc4ccc(O)c5c4C2(CCN3CCc2cccc([N+](=O)[O-])c2)C1O5 [Compound 2b, (7aR,12bS)-9-Hydroxy-3-(3-nitrophenethyl)-2,3,4,4a,5,6-hexahydro-1H-4,12-methanobenzofuro[3,2-e]-0isoquinolin-7(7aH)-one] | 5.88 ± 0.38 | 92.5 ± 7.3 | 65.4 ± 7.7 | – | – | 5.2 nM and 5.22 nM | 102 | 95.3 | 46.7 nM | – | > 10000 nM | 3.38 | 116 | 6 | DNS | MOR antagonist | – | – | – | – | –
Cc1ccc(CCN2CC[C@]34c5c6ccc(O)c5O[C@H]3C(=O)CCC4C2C6)cc1 (stereo partly drawn) [Compound 2c, (7aR,12bS)-9-Hydroxy-3-(4-methylphenethyl)-2,3,4,4a,5,6-hexahydro-1H-4,12-methanobenzofuro[3,2-e]-isoquinolin-7(7aH)-one] | 0.86 ± 0.12 | 6.34 ± 0.65 | 44 ± 3.8 | 1.9 ± 0.7 | 55.6 ± 2.1% | 0.08 nM | 102 | 95 | 1 nM | 99.4 | 8.7 nM and 8.71 nM | 1.12 | 5.6 | 46.5 | – | potent partial MOR agonist | 38.1 ± 10.6 | 31.4 ± 4.2% | 23.1 ± 6.9 nM | 95% and 95.4 ± 3.8% | –
COc1ccc(CCN2CC[C@]34c5c6ccc(O)c5O[C@H]3C(=O)CCC4C2C6)cc1 (stereo partly drawn) [Compound 2d, (7aR,12bS)-9-Hydroxy-3-(4-methoxyphenethyl)-2,3,4,4a,5,6-hexahydro-1H-4,12-methanobenzofuro[3,2-e]-isoquinolin-7(7aH)-one] | 0.67 ± 0.05 | 5.43 ± 0.47 | 26.3 ± 1.9 | – | – | 0.13 nM | 103 | 97.5 | 2.7 nM and 2.71 nM | 96.2 | 7.4 nM and 7.38 nM | 2.69 | 11.2 | 23 | DNS | MOR antagonist | 5.9 ± 1.7 | 21.8% and 21.8 ± 0.8% | 33.6 ± 6.4 nM | 49% and 48.9 ± 3.2% | –
O=C1CCC2C3Cc4ccc(O)c5c4[C@@]2(CCN3CCc2ccc(F)cc2)[C@H]1O5 (stereo partly drawn) [Compound 2e, (7aR,12bS)-9-Hydroxy-3-(4-fluorophenethyl)-2,3,4,4a,5,6-hexahydro-1H-4,12-methanobenzofuro[3,2-e]-isoquinolin-7(7aH)-one] | 0.87 ± 0.1 | 13.4 ± 0.9 | 44.3 ± 6 | 2.5 ± 0.3 | 42.6 ± 2.9% | 0.17 nM | 101 | 98.1 | 2.58 nM | 80 | 19.9 nM | 1.39 | 15.5 | 45.8 | – | potent partial MOR agonist | – | – | 64.2 ± 9.9 nM | – | DOR activity type in the [35S]GTPγS assay (rat DOR): weak partial DOR agonist; KOR EC50, [35S]GTPγS (human KOR): DNS
O=C1CCC2C3Cc4ccc(O)c5c4[C@@]2(CCN3CCc2cccc(F)c2)[C@H]1O5 (stereo partly drawn) [Compound 2f, (7aR,12bS)-9-Hydroxy-3-(3-fluorophenethyl)-2,3,4,4a,5,6-hexahydro-1H-4,12-methanobenzofuro[3,2-e]-isoquinolin-7(7aH)-one] | 0.49 ± 0.07 | 4.48 ± 0.43 | 30.2 ± 2.3 | 2.4 ± 0.3 | 56.8 ± 7.5% | 0.06 nM | 102 | 96.9 | 1.64 nM | 58 | 56.5 nM | 1.94 | 6.2 | 40.3 | – | – | – | – | 54.1 ± 4.7 nM | 86.7 ± 8.0% | KOR EC50, [35S]GTPγS (human KOR): DNS
O=C1CCC2C3Cc4ccc(O)c5c4[C@@]2(CCN3CCc2ccc(C(F)(F)F)cc2)[C@H]1O5 (stereo partly drawn) [Compound 2h, (7aR,12bS)-9-Hydroxy-3-(4-(trifluoromethyl)phenethyl)-2,3,4,4a,5,6-hexahydro-1H-4,12-methanobenzofuro-[3,2-e]isoquinolin-7(7aH)-one] | 2.7 ± 0.17 | 16.4 ± 0.4 | – | 3.4 ± 1.2 | 72.2 ± 5.5% | 0.21 nM | 102 | 94.3 | 2.41 nM | 95.7 | 98.2 nM | 0.56 | 10.3 | 62.4 | – | – | – | – | 36 nM and 35.7 nM | 82.3 ± 2.3% | KOR Binding, exploratory binding assay (κ-opioid receptor (KOR); radioligand displacement at 100 nM): NT (NT = not tested—inactive (<50% activity at 100 nM concentration in exploratory binding assays (displaced less than half of radioligand))
